The subject of series [1] is p210^bcr-abl kinase in K562 cells. In words: Immunoprecipitation kinase assay of p210bcr-abl from ODN treated K562 cells. The series is classed as cell-based, human. As to conditions: K562 cells incubated 3 days with 50 μM ODN, washed. As to the method:
(§1) Immunoprecipitation kinase assays of p210^bcr-abl p145^abl were performed as described, with modifications (15). Briefly, for p210^bcr-abl, 1 μg of anti-bcr antibody (clone 7C6, Oncogene Science, Uniondale, N.Y.) was added to lysates prepared from 0.5-1×10^6 K562 cells. For p145^abl, 1 μg of anti-c-abl antibody (clone 24-21), which binds to the C-terminal domain of p145^abl, was added to lysates prepared from 5×10^6 PC3M cells. After incubating 1 hour at 4° C., complexes were precipitated by incubating with protein A-Sepharose coated with rabbit anti-mouse immunoglobulin (Cappel Research Products, Durham, N.C.) for 30 minutes. The complexes were then washed as follows: ABL lysis buffer×2, PBS×1, and ABL assay buffer×1 (24 mM imidazole, pH 7.2, 1 mg/ml bovine serum albumin, and 10 mM MnCl). For p145^abl assays ABL assay buffer contained 20 mM MnCl. To access the activity of p210^bcr-abl on substrate phosphorylation, acid inactivated enolase (Sigma Chemical Co., St. Louis, Mo.) was added as described (15).
ODNs were added to kinase reaction buffers not more than 5 minutes prior to the addition of ATP. Reactions were initiated by the addition of [γ^-32 P] ATP (3000 Ci/mmole; Amersham Corp., Arlington Heights, Ill.) and quenched by the addition of 5× gel loading buffer and heating to 95° C. Kinase reactions were run for 1-10 minutes at room temperature, except for EGFR, p145^abl, and MAP kinase, which were run at 30° C. The products were then electrophoresed on SDS-polyacrylamide gels: 7% for p210^bcr-abl, EGFR, and PDGFR, 8% for p145^abl, 10% for src, lck, and cdc-2 kinase, and 12% for MAP kinase. Gels were dried and reaction products were visualized by direct autoradiography at -70° C. with Kodak X-OMAT AR film. To determine the inhibitory concentration 50, i.e., the concentration required to inhibit enzyme activity by 50% (IC50) and Ki values, gel slices containing the band of interest were excised and analyzed by Cerenkov counting.
The effects of ODN1 on a cellular system were assessed. […] After 3 days, cells were washed and p210^bcr-abl kinase activity was measured. […] Neither cellular p210^bcr-abl protein content nor cell growth was affected by ODN treatment (data not shown).

In the next series the test system is p145^abl kinase. The series can be described thus: Phosphorylation of exogenous substrate enolase by p145abl. The series is classed as biochemical. As to conditions: ODN1 concentrations of up to 50 μM. As to the method:
as §1
ODNs were added to kinase reaction buffers not more than 5 minutes prior to the addition of ATP. Reactions were initiated by the addition of [γ^-32 P] ATP (3000 Ci/mmole; Amersham Corp., Arlington Heights, Ill.) and quenched by the addition of 5× gel loading buffer and heating to 95° C. […]

As to “5'-GTCCACCATGGCGCGGCCGGC-3' [ODN1] (phosphorothioate caps, further chemistry not given here) [21mer ODN complementary to nucleotides -12 to +9 of the p210bcr-abl mRNA, phosphorothioate capped unless otherwise specified]”, the “p210^bcr-abl kinase activity of ODN treated K562 cells” value is listed as “significantly decreased” in series [1] and “reduction” in series [1] (listed as BCR-AS). Also, the “inhibition of enolase phosphorylation by p145^abl” value in the series on p145^abl kinase is “no significant inhibition”.

The values above are taken from patent US5998596A, “Inhibition of protein kinase activity by aptameric action of oligonucleotides” (The United States of America as represented by the …).
